From ChEMBL document CHEMBL3425445, “Synthesis, crystal structure and biological evaluation of substituted quinazolinone benzoates as novel antituberculosis agents targeting acetohydroxyacid synthase” (Eur J Med Chem, 2015) come the findings set out here.

Format in all cases: functional
Experiment [1] concerns Mycobacterium tuberculosis. As to the kind of experiment: Antitubercular activity against rifampin, isoniazid and streptomycin-resistant Mycobacterium tuberculosis infected in human THP-1 cells assessed as inhibition of intracellular activity at 10 mg/L after 4 days. The following applies: THP-1, 96 h.
The subject of experiment [2] is Mycobacterium tuberculosis. As to the kind of experiment: Antitubercular activity against isoniazid-resistant Mycobacterium tuberculosis infected in human THP-1 cells assessed as inhibition of intracellular activity at 20 mg/L after 4 days. The following applies: THP-1, 96 h.
The subject of experiment [3] is Mycobacterium tuberculosis. As to the kind of experiment: Antitubercular activity against rifampin, isoniazid, kanamycin and ofloxacin-resistant Mycobacterium tuberculosis infected in human THP-1 cells assessed as inhibition of intracellular activity at 10 mg/L after 4 days. The conditions noted are these: THP-1, 96 h.
The subject of experiment [4] is Mycobacterium tuberculosis. As to the kind of experiment: Antitubercular activity against rifampin, isoniazid, amikacin and ofloxacin-resistant Mycobacterium tuberculosis assessed as inhibition of bacterial growth after 4 weeks by two-fold dilution technique. The following applies: 672 h.
Experiment [5] has as its system Mycobacterium tuberculosis. As to the kind of experiment: Antitubercular activity against rifampin, isoniazid and ethambutol-resistant Mycobacterium tuberculosis assessed as inhibition of bacterial growth after 4 weeks by two-fold dilution technique. The conditions noted are these: 672 h.
Experiment [6] relates to Mycobacterium tuberculosis. The experiment in a line: Antitubercular activity against isoniazid-resistant Mycobacterium tuberculosis assessed as inhibition of bacterial growth after 4 weeks by two-fold dilution technique. The following applies: 672 h.
In experiment [7] the test system is Mycobacterium tuberculosis. As to the kind of experiment: Antitubercular activity against rifampin, isoniazid, kanamycin and ofloxacin-resistant Mycobacterium tuberculosis assessed as inhibition of bacterial growth after 4 weeks by two-fold dilution technique. The conditions noted are these: 672 h.
In experiment [8] the test system is Mycobacterium tuberculosis. As to the kind of experiment: Antitubercular activity against rifampin, isoniazid and streptomycin-resistant Mycobacterium tuberculosis assessed as inhibition of bacterial growth after 4 weeks by two-fold dilution technique. The conditions noted are these: 672 h.
The subject of experiment [9] is Mycobacterium tuberculosis. The experiment in a line: Antitubercular activity against rifampin and isoniazid-resistant Mycobacterium tuberculosis infected in human THP-1 cells assessed as inhibition of intracellular activity at 10 mg/L after 4 days. The conditions noted are these: THP-1, 96 h.
For experiment [10], the system named is Mycobacterium tuberculosis. The experiment in a line: Antitubercular activity against rifampin and isoniazid-resistant Mycobacterium tuberculosis infected in human THP-1 cells assessed as inhibition of intracellular activity at 20 mg/L after 4 days. The conditions noted are these: THP-1, 96 h.
Experiment [11] relates to Mycobacterium tuberculosis. The experiment in a line: Antitubercular activity against rifampin, isoniazid, amikacin and ofloxacin-resistant Mycobacterium tuberculosis infected in human THP-1 cells assessed as inhibition of intracellular activity at 10 mg/L after 4 days. The following applies: THP-1, 96 h.
Experiment [12] concerns Mycobacterium tuberculosis. As to the kind of experiment: Antitubercular activity against rifampin and isoniazid-resistant Mycobacterium tuberculosis assessed as inhibition of bacterial growth after 4 weeks by two-fold dilution technique. The conditions noted are these: 672 h.
The test system of experiment [13] is Mycobacterium tuberculosis. As to the kind of experiment: Antitubercular activity against rifampin, isoniazid, kanamycin and ofloxacin-resistant Mycobacterium tuberculosis infected in human THP-1 cells assessed as inhibition of intracellular activity at 20 mg/L after 4 days. The following applies: THP-1, 96 h.
In experiment [14] the test system is Mycobacterium tuberculosis. The experiment in a line: Antitubercular activity against rifampin, isoniazid and ethambutol-resistant Mycobacterium tuberculosis infected in human THP-1 cells assessed as inhibition of intracellular activity at 20 mg/L after 4 days. The conditions noted are these: THP-1, 96 h.
Experiment [15] concerns Mycobacterium tuberculosis. The experiment in a line: Antitubercular activity against isoniazid-resistant Mycobacterium tuberculosis infected in human THP-1 cells assessed as inhibition of intracellular activity at 10 mg/L after 4 days. The following applies: THP-1, 96 h.
Experiment [16] relates to Mycobacterium tuberculosis. As to the kind of experiment: Antitubercular activity against rifampin, isoniazid and ethambutol-resistant Mycobacterium tuberculosis infected in human THP-1 cells assessed as inhibition of intracellular activity at 10 mg/L after 4 days. The following applies: THP-1, 96 h.
Experiment [17] concerns Mycobacterium tuberculosis. As to the kind of experiment: Antitubercular activity against rifampin, isoniazid and streptomycin-resistant Mycobacterium tuberculosis infected in human THP-1 cells assessed as inhibition of intracellular activity at 20 mg/L after 4 days. The conditions noted are these: THP-1, 96 h.
Experiment [18] relates to Mycobacterium tuberculosis. The experiment in a line: Antitubercular activity against rifampin, isoniazid, amikacin and ofloxacin-resistant Mycobacterium tuberculosis infected in human THP-1 cells assessed as inhibition of intracellular activity at 20 mg/L after 4 days. The conditions noted are these: THP-1, 96 h.

In brackets after ≈: the same amount, converted by molar mass.

Regarding `O=C(On1c(-c2cccc(F)c2)nc2ccccc2c1=O)c1cccc(F)c1`, the inhibition at 10 µg/mL in [1] is 26.2%; in [3], 26%; in experiment [9] it was 22.6%; in [11], 22.8%; in experiment [15], 25.5%; in experiment [16] it was 24.2%. Further, the inhibition at 20 µg/mL in experiment [2] stood at 51.3%; in experiment [10], 47.5%; in [13] it was 52.2%; in [14], 50.4%; in experiment [17] it was 53.4%; in experiment [18] it was 46.2%. Besides, the MIC in experiment [4], in experiment [5], in experiment [6], in [7], in experiment [8] and in experiment [12] was 2.5 µg/mL (≈ 6.61 µM) in each case.

On to `O=C(On1c(-c2ccccc2)nc2ccccc2c1=O)c1cccc([N+](=O)[O-])c1`, for which the MIC in experiment [4], in experiment [5], in [6], in [7], in experiment [8] and in [12] was 5 µg/mL (≈ 12.9 µM) in each case.

Consider `O=C(On1c(-c2ccccc2)nc2ccccc2c1=O)c1cccc(Cl)c1`, for which the MIC in experiment [4], in experiment [5], in experiment [6], in experiment [7], in [8] and in experiment [12] was 5 µg/mL (≈ 13.3 µM) in each case.

As for `COc1cccc(-c2nc3ccccc3c(=O)n2OC(=O)c2cccc([N+](=O)[O-])c2)c1`, the MIC in experiment [4], in experiment [5], in experiment [6], in [7], in experiment [8] and in experiment [12] was 5 µg/mL (≈ 12 µM) in each case.

Turning to `COc1cccc(-c2nc3ccccc3c(=O)n2OC(=O)c2cccc(C(F)(F)F)c2)c1`, the MIC in [4], in [5], in experiment [6], in experiment [7], in experiment [8] and in experiment [12] was 10 µg/mL (≈ 22.7 µM) throughout.

For `NNC(=O)c1ccncc1` [ISONIAZID], the minimum inhibitory concentration (MIC) in experiment [4], in experiment [5], in experiment [6], in experiment [7], in experiment [8] and in experiment [12] was over 8 µg/mL throughout.

`CO[C@H]1/C=C/O[C@@]2(C)Oc3c(C)c(O)c4c(O)c(c(/C=N/N5CCN(C)CC5)c(O)c4c3C2=O)NC(=O)/C(C)=C\C=C\[C@H](C)[C@H](O)[C@@H](C)[C@@H](O)[C@@H](C)[C@H](OC(C)=O)[C@@H]1C` [RIFAMPIN]: the MIC in [4] was over 8 µg/mL; in experiment [5], over 8 µg/mL; in experiment [6] it was 0.4 µg/mL (≈ 0.486 µM); in experiment [7] it was over 8 µg/mL; in experiment [8], over 8 µg/mL; in experiment [12] it was over 8 µg/mL.

Turning to `COC(=O)c1ccccc1S(=O)(=O)NC(=O)Nc1nc(C)cc(C)n1` [SULFOMETURON METHYL], the inhibition at 10 µg/mL in experiment [1] came out at 18.5%; in [3], 18.8%; in experiment [9], 16.2%; in experiment [11], 15%; in [15] it was 17.8%; in experiment [16], 17%. In addition, the inhibition at 20 µg/mL was 35.6% in experiment [2]; 34.4% in experiment [10]; 36% in experiment [13]; 35% in experiment [14]; 36.2% in [17]; 31.8% in experiment [18]. In addition, the MIC in experiment [4], in experiment [5], in experiment [6], in [7], in experiment [8] and in experiment [12] was 10 µg/mL (≈ 27.4 µM) in each case.

The term inhibition denotes the relative decrease from the control value, in per cent. One may read the MIC as the lowest concentration that inhibits growth of the organism.
